# Patent US20140017336A1, “CO-ADMINISTRATION OF ARSENIC COMPOUNDS AND ANTI-HERPES VIRUS ANTI-VIRALS” (priority 2011, published 2014)
# Entries after “also recorded” stand apart in the source; their conditions may differ.
# Experiments:
# Format in all cases: cell-based, Epstein-Barr virus
# [1] = test system: EBV immediate early protein Zta; assay: Zta immunofluorescence in EBV infected A549 cells
# Procedure: (§1) A549 cells were plated on 8-chambered Lab-Tek slides at 3×10^4 cells per well; chemical treatment began 24 hours after plating. At specified time points, cells were rinsed twice with PBS and fixed in 4% paraformaldehyde (freshly diluted from 16%, Electron Microscopy Science, Hatfield, Pa.) for 10 min at room temperature. The cells were then rinsed twice with PBS and permeabilized with 0.5% Triton™ X100 (Sigma) in PBS for 15 min at room temperature. Primary antibodies were applied at specified concentrations overnight in a humidified chamber at 4° C. Following 3 rinses in PBS, secondary antibodies were diluted 1:500 and applied for 1 hour at room temperature. The chambers were removed and Vectashield® with DAPI (Vector Laboratories, Burlingame, Calif. #H1200) was applied with cover slip mount. […]
# To investigate the ability of ATO to disrupt PML NB in EBV infected A549 cells, cells were treated with varying doses of ATO for 24 hours and PML NBs were imaged. […] To assess whether EBV positivity affected PML protein levels, cell fractions from two separate EBV infections (A549<EBV>2C and A549<EBV>3A) and uninfected parental A549 cells were analyzed by western blot. […] To quantify the increase in Zta expression, mRNA isolated from A549<EBVBX1>3A cells treated with varying doses of ATO for 72 hours was analyzed by qRT-PCR. […]
# EBV BMRF1 mRNA [2] = conditions: within 72 hours, qRT-PCR
# [3] = test system: EBV immediate early protein Zta; assay: Zta immunofluorescence in CNE1<EBV-BX1> cells; conditions: 1 nM ATO with or without 40 μM GCV, 3 days
# Procedure: as §1
# To more specifically investigate the effects of disruption of PML NB on ZTA expression, siRNA directed against the PML transcript or a control siRNA were transfected into CNE1<BX1> cells. At day 4 post transfection, PML and Zta expression were analyzed using immunofluorescence. […] EBV infected and uninfected parental CNE1 cells were transfected with siRNA against the PML transcript or control siRNA cultured in the presence or absence of 40 μM GCV for 7 days and cells were counted in order to investigate whether disruption of PML NBs using siRNA induced GCV susceptibility. […]
# EBV Zta mRNA = assay: qRT-PCR of Zta mRNA in CNE1<EBV-BX1> cells
# EBV Zta = assay: Western blot of Zta in EBV-negative MUTU cells; conditions: 0, 10 nM, 100 nM ATO, day 3
# EBV BMRF1 mRNA [4] = assay: qRT-PCR of BMRF1 mRNA in CNE1<EBV-BX1> cells
# [5] = 4 days, 1 nM ATO and/or 40 μM GCV
substance,measurement,setting,value
arsenic trioxide [ATO],cells staining positively for Zta,"[1]; day 8, 10 nM ATO plus or minus GCV",100%
same,"number of Zta positive cells, dose response","[1]; varying doses of ATO, 72 hours (3 days), two separate EBV infections of A549 cells",increase in the number of Zta positive cells in an ATO dose responsive manner; also recorded: increases the number of Zta positive cells in a dose dependent manner
same,ATO dose inducing BMRF1 mRNA,EBV BMRF1 mRNA [2],≥ 12.5 nM
same,number of Zta positive cells,[3],increased the number of cells that were Zta positive
same,ATO dose inducing upregulation of ZTA mRNA,"EBV Zta mRNA; 48 hours, 'as low as'",1.25 nM
same,Zta mRNA expression compared to control,EBV Zta mRNA; [5],increased
same,"Zta expression (Western blot), EBV-negative MUTU cells",EBV Zta,absent; also recorded: no Zta expression
same,ATO dose inducing upregulation of BMRF1 mRNA,"EBV BMRF1 mRNA [4]; 48 hours, 'as low as', to a lesser extent than ZTA",1.25 nM
same,BMRF1 mRNA expression compared to control,EBV BMRF1 mRNA [4]; [5],increased
